Here are results for 13 compounds from PubChem BioAssay (NCI).

Among the test systems are HOP-62 NSCLC; SN12C renal; HCT-116 colon; M14 melanoma; SF-539 CNS; MDA-MB-231 breast; NCI-H522 lung; OVCAR-5 ovarian; LOX IMVI melanoma; SK-MEL-5 melanoma.
Holding throughout (assay): NCI tumour cell line growth inhibition, 48 h

SMILES strings stand for the structures.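 1) Cells in 96-well plates. 2) Compound, 48 h, 5 concentrations. 3) Linear interpolation between surrounding doses. 4) Unreached endpoint = highest concentration. TGI is the concentration that stops growth completely.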

With `CN=C1C=C(/N=C2/C=C(N/C(=C\C#N)C(C)(C)O)OC2(C)C)OC1(C)C`, the TGI is > 100 µM in the assay on HOP-62 NSCLC; > 100 µM with SN12C renal; 69.4 µM in the assay on HCT-116 colon; > 78.4 µM in the assay on M14 melanoma; > 100 µM in the assay on SF-539 CNS; > 100 µM with MDA-MB-231 breast. The TGI in the assay with NCI-H522 lung was 69 µM; in the assay on OVCAR-5 ovarian, > 100 µM; in the assay on LOX IMVI melanoma, > 100 µM; in the assay on SK-MEL-5 melanoma, > 85.7 µM.
Consider `CC1CC(C)(C)CC(OCCN2CCCCC2)(c2ccccc2)C1` (stereo not given), for which the TGI worked out at 26.5 µM with HOP-62 NSCLC; 25.4 µM with SN12C renal; 18.9 µM with HCT-116 colon; 14.4 µM in the assay with M14 melanoma; 29.4 µM in the assay on SF-539 CNS; 24.9 µM with MDA-MB-231 breast. Besides, the TGI was 21.6 µM in the assay with NCI-H522 lung, 18.2 µM in the assay on OVCAR-5 ovarian, 21.3 µM in the assay on LOX IMVI melanoma and 22.9 µM with SK-MEL-5 melanoma.
Regarding `N#Cc1cc2c(n(C3OC(CO)C(O)C(O)C3O)c1=S)CCC2` (stereo not given), the TGI with HOP-62 NSCLC, in the assay with SN12C renal, in the assay with HCT-116 colon, in the assay with M14 melanoma, in the assay on SF-539 CNS and with MDA-MB-231 breast was > 100 µM each time. Also, the TGI with NCI-H522 lung, with OVCAR-5 ovarian, in the assay on LOX IMVI melanoma and with SK-MEL-5 melanoma was > 100 µM in each case.
Consider `COC(=O)c1sc2c(Cl)c(Cl)sc2c1Cl`, for which the TGI in the assay with HOP-62 NSCLC, in the assay on SN12C renal, in the assay with HCT-116 colon, with M14 melanoma, in the assay on SF-539 CNS and with MDA-MB-231 breast was > 100 µM in each case. In addition, the TGI with NCI-H522 lung, with OVCAR-5 ovarian, with LOX IMVI melanoma and in the assay with SK-MEL-5 melanoma was > 100 µM each time.
As for `COc1ccccc1-c1cc(=O)c2cccnc2[nH]1`, the TGI in the assay on HOP-62 NSCLC, with SN12C renal, in the assay with HCT-116 colon, with M14 melanoma, with SF-539 CNS and in the assay with MDA-MB-231 breast was > 100 µM throughout. Further, the TGI in the assay on NCI-H522 lung, in the assay on OVCAR-5 ovarian, in the assay on LOX IMVI melanoma and in the assay on SK-MEL-5 melanoma was > 100 µM each time.
With `C=C(C)C1CCC2(C)C1CCC1(C)C2CCC2C3(C)C4OC(OC4=O)C(C)(C)C3CCC21C` (stereo not given), the TGI in the assay with HOP-62 NSCLC, in the assay on SN12C renal, with HCT-116 colon, in the assay on M14 melanoma, with SF-539 CNS and in the assay on MDA-MB-231 breast was > 100 µM throughout. Moreover, the TGI is 53.6 µM with NCI-H522 lung, > 100 µM with OVCAR-5 ovarian, > 100 µM in the assay on LOX IMVI melanoma and > 100 µM in the assay on SK-MEL-5 melanoma.
For the compound `CC(C)(C)c1cc(C(C)(C)C)c2sc(=O)oc2c1O`, the TGI with HOP-62 NSCLC was found to be 33.2 µM; in the assay on SN12C renal it was 27.1 µM; in the assay on HCT-116 colon it was 29.8 µM; in the assay on M14 melanoma, 31.6 µM; with SF-539 CNS it was 30.9 µM; in the assay on MDA-MB-231 breast, 33.4 µM. For the same compound, the TGI in the assay with NCI-H522 lung came to 26.7 µM; in the assay with OVCAR-5 ovarian it was 33.4 µM; in the assay with LOX IMVI melanoma, 27.7 µM; in the assay with SK-MEL-5 melanoma, 27.9 µM.
As to `O=C(CCCCCCCCC(=O)N1C(=O)CC(=O)N(c2ccc(Cl)cc2)C1=S)N1C(=O)CC(=O)N(c2ccc(Cl)cc2)C1=S`, the TGI in the assay on HOP-62 NSCLC, in the assay on SN12C renal, in the assay on HCT-116 colon, with M14 melanoma, in the assay on SF-539 CNS and in the assay with MDA-MB-231 breast was > 100 µM each time. Besides, the TGI in the assay on NCI-H522 lung, in the assay with OVCAR-5 ovarian, with LOX IMVI melanoma and in the assay with SK-MEL-5 melanoma was > 100 µM in each case.
On to `CC(C)NC(=O)OCCN=C1c2ccccc2C(Br)C(Br)c2ccccc21` (stereo not given), for which the TGI was 30 µM in the assay with HOP-62 NSCLC; 43.4 µM with SN12C renal; > 58.1 µM in the assay with HCT-116 colon; 16.2 µM in the assay on M14 melanoma; 9.64 µM with SF-539 CNS; 30.5 µM with MDA-MB-231 breast. Further, the TGI with NCI-H522 lung came out at 3.52 µM; in the assay with OVCAR-5 ovarian it was 27.3 µM; in the assay with LOX IMVI melanoma, 10.1 µM; with SK-MEL-5 melanoma, 21.1 µM.
For `COc1cc2c(cc1OC)C(C1CC1)ON(C)CC2` (stereo not given), the TGI in the assay with HOP-62 NSCLC, with SN12C renal, in the assay on HCT-116 colon, with M14 melanoma, in the assay on SF-539 CNS and in the assay with MDA-MB-231 breast was > 100 µM in each case. Moreover, the TGI in the assay on NCI-H522 lung, with OVCAR-5 ovarian, with LOX IMVI melanoma and with SK-MEL-5 melanoma was > 100 µM in each case.
As for `COc1cc2ccc(C(C)NCC#N)cc2cc1OC` (stereo not given), the TGI in the assay on HOP-62 NSCLC, in the assay on SN12C renal, in the assay with HCT-116 colon, in the assay on M14 melanoma, with SF-539 CNS and with MDA-MB-231 breast was > 100 µM throughout. The TGI with NCI-H522 lung, with OVCAR-5 ovarian, with LOX IMVI melanoma and in the assay on SK-MEL-5 melanoma was > 100 µM in each case.
Regarding `N#CC(c1cc(Cl)ncn1)c1nc2cc(C(F)(F)F)ccc2s1` (stereo not given), the TGI in the assay with HOP-62 NSCLC is 30.9 µM; with SN12C renal, > 100 µM; in the assay with HCT-116 colon, 8.9 µM; in the assay with M14 melanoma, 18.7 µM; with SF-539 CNS, 20.9 µM; in the assay on MDA-MB-231 breast it was 33.9 µM. The TGI in the assay with NCI-H522 lung amounted to 3.61 µM; with OVCAR-5 ovarian, 34.3 µM; in the assay on LOX IMVI melanoma it was 11.8 µM; with SK-MEL-5 melanoma, 26.2 µM.
Regarding `CC(=O)N1CN2C(=O)CCC2c2cc(C)ccc21` (stereo not given), the TGI in the assay on HOP-62 NSCLC, in the assay on SN12C renal, in the assay on HCT-116 colon, in the assay with M14 melanoma, in the assay on SF-539 CNS and in the assay on MDA-MB-231 breast was > 100 µM in each case. The TGI in the assay on NCI-H522 lung, in the assay with OVCAR-5 ovarian, with LOX IMVI melanoma and in the assay on SK-MEL-5 melanoma was > 100 µM each time.
